In patent US10933067B2, “Nucleoside derivative having physiological activity such as antiviral activity” (NATIONAL CENTER FOR GLOBAL HEALTH AND MEDICINE, priority 2016, dated 2021):
Where two headings read alike, the source gives them in different places.

Key:
Type in all cases: cell-based
HIV-1 LAI = experiment: Evaluation of anti-HIV activity (MT-2 cells exposed to HIV-1 LAI, MTT assay); conditions: Human immunodeficiency virus 1, MT2, 168 h, 7 days, read-out: Antiviral activity, EC50 HIV-1
Description: HIV-1 LAI was used as a wild-type HIV-1 molecular clone. In addition, MT-2 cells were used as cells to be infected. These cells were continuously cultured and maintained in a RPMI-1640 medium containing 10% FCS and supplemented with the aforementioned antibiotics. The MT-2 cells were exposed to HIV-1 LAI virus in an amount of 50 times the 50% infectious concentration (TCID 50), and the resultant MT-2 cells and a medium supplemented with each of the nucleoside derivatives at each of concentrations after serial dilution were together seeded into each cell of a 96-well cell culture dish at a concentration of 1×10^4 cells/mL. Then, after culturing for 7 days in the presence of each nucleoside derivative under standard culture conditions of 37° C. and 5% CO2, the number of live cells in each well was quantified by MTT assay. Based on the numbers of live cells obtained, the EC50 value was calculated and the anti-HIV activity of each nucleoside derivative was evaluated.

[1] = Cytotoxicity test 1, MT-2 cells (MTT assay); conditions: human
Experimental: (§1) The above nucleoside derivatives were also subjected to cytotoxicity tests on the MT-2 cells and HepG2 cells. Together with the medium to which each nucleoside derivative at each concentration after serial dilution was added, the MT-2 cells were seeded at a concentration of 1×10^4, whereas the HepG2 cells were seeded at a concentration of 1×10^4. Thus, these cells were cultured in the presence of each nucleoside derivative at various concentrations for 7 days under the standard culture conditions of 37° C. and 5% CO2, and thereafter the number of live cells in each well was quantified by an MTT assay. Based on the numbers of live cells obtained, the CC50 was calculated for each nucleoside derivative.

[2] = Cytotoxicity test 1, HepG2 cells (MTT assay); conditions: human
Experimental: as §1

HBV = experiment: Evaluation of anti-HBV activity (HepG2 2.2.15.7 cells, HBV DNA qPCR); conditions: Hepatitis B virus
Experimental: HepG2 2.2.15.7 cells were used as test cells. The HepG2 2.2.15.7 cells were prepared by using, as parent cell lines, HepG2 2.2.15 cells prepared so as to continuously produce HBV by introducing the HBV genes into human hepatoma cell lines (HepG2 cells). Meanwhile, the HepG2 2.2.15.7 cells were maintained by continuous culturing in DMEM containing 10% fetal calf serum, G418 (500 μg/ml), and antibiotics (penicillin and kanamycin).
The HepG2 2.2.15.7 cells are HBV continuously producing cells that carry not only genomically integrated DNAs, but also HBV genes produced as episomes. Therefore, the HepG2 2.2.15.7 cells were co-cultured with each nucleoside derivative, the DNA copy number of viruses released into the culture supernatant and the DNA copy number of the viruses present in the HepG2 2.2.15.7 cells were quantified, and a degree of decrease thereof was used as an index of the evaluation of the anti-HBV activity.
More specifically, the epG2 2.2.15.7 cells with a cell viability of 90% or more were seeded in a collagen-coated 96-well cell culture dish at a concentration of 2×10^4 cells/ml, and each nucleoside derivative was added at various concentrations at the same day as the cell seeding. After culturing for 3 days under the standard culture conditions of 37° C. and 5% CO2, the medium was exchanged to a fresh medium containing each nucleoside derivative, and HBV DNA was collected from the culture supernatant on the third day after the exchange for a 1W assay (an assay on day 7 from the start of culture). In addition, a fresh medium containing each nucleoside derivative was further added to the cell plate after the collection of the supernatant, and the culture was further continued for 7 days. For a 2W assay (an assay on day 14 from the start of culture), intracellular HBV DNAs were collected from the HepG2 2.2.15.7 cells. Using these DNAs as a template, the quantitative PCR was performed to find the virus copy number from the calibration curve, and the 50% effect (EC50) for each nucleoside derivative was calculated.
The DNA extractions from the supernatant of the HepG2 2.2.15.7 cells and from inside the cells were carried out using QIAamp Mini Elute virus Spin Kit (manufactured by QIAGEN), and 5 μL of the extracted DNAs was used for the qPCR. The PCR reaction was conducted by using a specific TaqMan probe primer, manufactured by Primer Design Ltd., which detects the HBV core protein region. The PCR reaction was carried out at 95° C. for 15 minutes, followed by 50 cycles of 95° C. for 10 seconds and 60° C. for 60 seconds. The obtained CT was converted to the HBV copy number using a calibration curve obtained from reactions in which HBV DNA fragments at a known concentration were diluted every 10-fold (from to 2×10^8 copies).

[3] = Cytotoxicity test 2, PXB cells (MTT assay); conditions: PXB cells (fresh human hepatocytes)
Experimental: PXB cells were used as test cells. PXB cells were fresh human hepatocytes isolated from chimeric mice with humanized liver and were maintained in a dHCGM medium for PXB cells. Both the cells and the medium are made by PhoenixBio Co., Ltd.
The PXB cells were seeded at 3×10^5 cells/ml on a collagen-coated 96-well plate and cultured together with each compound at each concentration after stepwise dilution for 7 days under the standard culture conditions of 37° C. and 5% CO2, and thereafter the number of live cells in each well was quantified by an MTT assay. Based on the obtained values, the degree of cytotoxicity was determined, and the CC50 value was calculated as the cytotoxicity of each compound.

[4] = system: ETV resistant strain (genotype: HBV/Ce); experiment: Evaluation of anti-HBV/Ce activity (Huh-7 cells transfected with ETV resistant strain, Southern blot); conditions: Hepatitis B virus, Huh-7, 72 h, read-out: Antiviral activity, EC50 HBV ETVr
Experimental: Regarding the above nucleoside derivatives, each nucleoside derivative was added to Huh-7 cells transfected with an ETV resistant strain (genotype: HBV/Ce, referred to as “HBV ETVr” in Table 1). After 72 hours from the addition, DNAs were extracted from the cells according to a conventional method, and analyzed by Southern blot using a probe for the HBV gene. Thus, the DNA copy number of the viruses was quantified, and the EC50 value was calculated in the same way as described above.

[5] = 336 h, day 14, intracellular HBV DNA, read-out: Antiviral activity, EC50 HBV 2W assay

| Compound | EC50 (HIV-1 LAI) | CC50 at 7 days [1] | CC50 at 7 days [2] | EC50 (HBV; [5]) | CC50 at 7 days [3] | EC50 (HBV; 168 h, day 7, HBV DNA in culture supernatant, read-out: Antiviral activity, EC50 HBV 1W assay) | EC50 [4] |
| --- | --- | --- | --- | --- | --- | --- | --- |
| C=C1[C@@H](n2cnc3c(=O)[nH]c(N)nc32)C[C@H](O)[C@@]1(C#N)CO | 160 nM | > 100 µM | 89 µM | 30 nM |  |  |  |
| C=C1[C@@H](n2cnc3c(=O)[nH]c(N)nc32)C[C@H](O)[C@@]1(O)CO | > 1000 nM | > 100 µM | 67 µM | 10 nM |  |  |  |
| C=C1[C@@H](n2cnc3c(=O)[nH]c(N)nc32)C[C@H](O)[C@]1(CO)CF | > 1000 nM | > 100 µM | > 100 µM | 90 nM |  |  |  |
| C=C[C@]1(CO)C(=C)[C@@H](n2cnc3c(=O)[nH]c(N)nc32)C[C@@H]1O | > 1000 nM | > 100 µM | > 100 µM | > 1000 nM |  |  |  |
| C#C[C@]1(CO)C(=C)[C@@H](n2cnc3c(=O)[nH]c(N)nc32)C[C@@H]1O | 27 nM | > 100 µM | > 100 µM | > 1000 nM |  |  |  |
| N#C[C@]1(CO)/C(=C\F)[C@@H](n2cnc3c(=O)[nH]c(N)nc32)C[C@@H]1O [(1S,3S,5S,E)-3-(2-Amino-6-oxo-1,6-dihydro-9H-purin-9-yl)-2-(fluoromethylene)-5-hydroxy-1-(hydroxymethyl)cyclopentane-1-carbonitrile] | 20 nM | > 100 µM | 50 µM | 7 nM | > 100 µM | 3 nM | 65.3 nM |
